The record followed here is patent publication US20080213356A1, “Pharmaceutical Composition Containing Hmg-Coa Reductase Inhibitor And Method For The Preparation Thereof” (PHARMATHEN S.A., priority 2005, published 2008).

The data set in a line: Flowability and compressibility, Carr's Index. The data set is classed as physicochemical. The conditions noted are these: pure pharmaceutical substance. An excerpt: However, when Dimethicone was incorporated according to the present invention, a decrease of 40-50% of the Carr Index was observed, which indicates an improvement of the flow properties of Fluvastatin and Atorvastatin and therefore the use of a direct compression for the final formulation.

Where a name gives a salt, the structure may show the parent alone.

Take `CC(C)c1c(C(=O)Nc2ccccc2)c(-c2ccccc2)c(-c2ccc(F)cc2)n1CC[C@@H](O)C[C@@H](O)CC(=O)O` (relative stereo) [Atorvastatin, [R—(R*,R*)]-2-(4-fluorophenyl)-b,d-dihydroxy-5-(1-methylethyl)-3-phenyl-4 [(phenylamino)carbonyl]-1H-pyrrole-1-heptanoic acid, calcium salt (2:1) trihydrate]: the “mean Carr's Index” value was 24-25%.
